How the values were obtained:
[1] = target: T1, Glutamate receptor ionotropic, kainate 1 (Homo sapiens, UniProt P39086); assay: Displacement of [3H]-kainate from GluK1 receptor (unknown origin)
[2] = target: T2, Glutamate receptor ionotropic, kainate 2 (Homo sapiens, UniProt Q13002); assay: Displacement of [3H]-kainate from GluK2 receptor (unknown origin)
[3] = target: T1, Glutamate receptor ionotropic, kainate 1; assay: Displacement of [3H]-kainate from GluK1 receptor (unknown origin) at 100 uM
[4] = target: T2, Glutamate receptor ionotropic, kainate 2; assay: Displacement of [3H]-kainate from GluK2 receptor (unknown origin) at 100 uM

T2 sequence (Q13002 whole entry): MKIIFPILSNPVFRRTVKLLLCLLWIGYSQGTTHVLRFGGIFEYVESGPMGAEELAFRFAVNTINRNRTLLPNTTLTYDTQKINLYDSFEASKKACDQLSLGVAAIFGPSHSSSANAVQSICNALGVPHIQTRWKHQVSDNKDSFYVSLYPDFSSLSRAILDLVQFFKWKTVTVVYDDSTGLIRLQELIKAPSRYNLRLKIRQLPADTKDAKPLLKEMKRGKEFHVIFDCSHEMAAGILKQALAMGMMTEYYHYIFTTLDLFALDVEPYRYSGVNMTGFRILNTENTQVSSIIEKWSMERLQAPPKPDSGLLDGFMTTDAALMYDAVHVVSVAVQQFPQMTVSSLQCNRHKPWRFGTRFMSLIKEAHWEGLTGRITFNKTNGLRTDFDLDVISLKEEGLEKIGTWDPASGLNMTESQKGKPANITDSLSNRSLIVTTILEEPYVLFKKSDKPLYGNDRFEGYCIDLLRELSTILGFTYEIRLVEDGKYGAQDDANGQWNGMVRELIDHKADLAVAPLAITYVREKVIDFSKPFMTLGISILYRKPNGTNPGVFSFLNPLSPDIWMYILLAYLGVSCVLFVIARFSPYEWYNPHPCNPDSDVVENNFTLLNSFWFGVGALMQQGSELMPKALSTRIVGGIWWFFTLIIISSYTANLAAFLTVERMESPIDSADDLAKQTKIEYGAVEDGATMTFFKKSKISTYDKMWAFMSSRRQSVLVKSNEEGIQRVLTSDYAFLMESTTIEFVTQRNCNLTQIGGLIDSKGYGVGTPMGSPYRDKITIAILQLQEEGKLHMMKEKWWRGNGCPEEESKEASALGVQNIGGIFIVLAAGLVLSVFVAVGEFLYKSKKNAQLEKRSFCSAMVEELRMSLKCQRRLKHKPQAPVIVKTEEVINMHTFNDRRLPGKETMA
T1 sequence (P39086 whole entry): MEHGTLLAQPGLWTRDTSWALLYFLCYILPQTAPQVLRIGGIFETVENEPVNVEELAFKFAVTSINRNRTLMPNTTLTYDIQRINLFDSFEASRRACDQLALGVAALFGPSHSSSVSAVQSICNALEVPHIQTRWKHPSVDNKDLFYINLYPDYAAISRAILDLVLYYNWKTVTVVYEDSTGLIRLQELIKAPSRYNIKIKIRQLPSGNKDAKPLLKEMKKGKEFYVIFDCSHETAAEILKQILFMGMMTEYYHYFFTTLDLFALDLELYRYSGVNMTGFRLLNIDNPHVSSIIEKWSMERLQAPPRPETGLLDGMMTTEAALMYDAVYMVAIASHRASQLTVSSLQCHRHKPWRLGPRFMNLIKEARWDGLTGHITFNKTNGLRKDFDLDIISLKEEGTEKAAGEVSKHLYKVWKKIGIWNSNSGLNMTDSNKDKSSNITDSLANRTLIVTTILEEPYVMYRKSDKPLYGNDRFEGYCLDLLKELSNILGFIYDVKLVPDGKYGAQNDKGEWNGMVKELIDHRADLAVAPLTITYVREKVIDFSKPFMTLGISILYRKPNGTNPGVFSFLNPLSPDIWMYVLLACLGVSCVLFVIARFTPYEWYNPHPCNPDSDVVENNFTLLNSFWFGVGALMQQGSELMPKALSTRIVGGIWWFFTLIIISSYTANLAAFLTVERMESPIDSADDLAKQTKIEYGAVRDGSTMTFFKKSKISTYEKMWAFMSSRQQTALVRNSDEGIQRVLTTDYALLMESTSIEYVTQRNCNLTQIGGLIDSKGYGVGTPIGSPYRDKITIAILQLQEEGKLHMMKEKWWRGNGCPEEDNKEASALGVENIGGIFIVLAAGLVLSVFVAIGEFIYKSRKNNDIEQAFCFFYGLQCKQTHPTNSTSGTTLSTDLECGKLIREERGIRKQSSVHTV

| Compound | IC50 [1] | IC50 [2] | inhibition [3] | inhibition [4] |
| --- | --- | --- | --- | --- |
| CCn1c(-c2ccc(OC)cc2)c(C)c2cc(OC)ccc21 | 4 µM | 0.7 µM |  |  |
| COc1ccc(-c2c(C)c3cc(OC)ccc3n2Cc2ccc(Cl)cc2)cc1 |  |  | 0% | 20% |
| CCn1c(-c2ccc(OC)cc2)c(C)c2ccccc21 |  | 10 µM | 32% |  |
| CCn1c2c(c3cc(OC)ccc31)CCc1ccccc1-2 |  |  | 0% | 1% |
| CCn1c(-c2ccccc2)c(C)c2cc(OC)ccc21 |  | 6 µM | 32% |  |
| CCn1c(-c2ccccc2)cc2cc(OC)ccc21 | 12 µM | 6.7 µM |  |  |

Reference: ChEMBL document CHEMBL3102783, “Structural studies, homology modeling and molecular docking of novel non-competitive antagonists of GluK1/GluK2 receptors” (Bioorg Med Chem, 2014)
